Consider 16 compounds from patent publication US20260241012A1, “1,8-NAPHTHYRIDIN-2-ONE HETEROBIFUNCTIONAL BCL6 DEGRADERS” (Treeline Biosciences, Inc., priority 2022, published 2026).

The assay has as its target T1, N-terminal HiBiT tagged BCL6 (Homo sapiens, UniProt P41182).
T1 construct: expressed in transfected cells; host or cells: HT1080 (ATCC CCL-121), stably transduced with lentivirus pLV-UBC-N-HiBiT-BCL6-PGK-puro
Kind of assay: HiBiT based degradation assay. As to conditions: HT1080 cells expressing N-terminal HiBiT tagged BCL6, 5 hours of incubation; for Ymin (5 hr): BCL6 degradation normalized with DMSO control; for DC50: four-parameter logistic model, read-out: EC50 (5 hr). It is filed as cell-based. An excerpt: Human BCL6 protein coding open reading frame fused with N-terminal HiBiT coding sequence was synthesized from Integrated DNA Technologies (IDT). Next, the N-HiBiT-BCL6 sequence was cloned into pLV-UBC-PGK-Puro, a lentivirus plasmid purchased from Vectorbuilder, to generate pLV-UBC-N-HiBiT-BCL6-PGK-puro. Lentiviral particles were generated from Lenti-X™ 293T cells (Clontech) by co-transfection of pLV-UBC-N-HiBiT-BCL6-PGK-puro plasmids and lentiviral packaging plasmid mix (Cellecta). HT1080 [HT1080] (ATCC CCL-121) cells were infected with the lentivirus, and HT1080 cells stably integrated with the lentiviral vectors were established by incubation with 1 μg/mL puromycin (Thermofisher).
HT1080 cells expressing N-terminal HiBiT tagged BCL6 were dispensed into a 384-well plate pre-spotted with compounds at varying concentrations. Five thousand cells were seeded into each well in 40 μL of RPMI 1640 media plus 10% Fetal Bovine Serum (10082-147, Thermofisher). After 5 hours of incubation at 37° C. with 5% CO2, 30 μL of the NANO-GLOR HiBiT Lytic Detection System working solution (Promega) was added to each well and incubated at room temperature for 15 min. After incubation, luminescence was read on a PHERAstar FSX Plate Reader (BMG). BCL6 degradation at each indicated concentration was normalized with DMSO control. The BCL6 degradation curves were plotted using a four-parameter logistic model.
A general note: With HiBiT, luminescence reflects the tagged protein that the partner subunit can reach.

Regarding `CNC(=O)COc1cc2cc(Nc3nc(N4CC[C@@H](CNc5cccc6c(C7CCC(=O)NC7=O)nn(C)c56)C4)ncc3Cl)cnc2n(C)c1=O` (stereo partly drawn) [Compound 122b, 2-((6-((5-chloro-2-((3S)-3-(((3-(2,6-dioxopiperidin-3-yl)-1-methyl-1H-indazol-7-yl)amino)methyl)pyrrolidin-1-yl)pyrimidin-4-yl)amino)-1-methyl-2-oxo-1,2-dihydro-1,8-naphthyridin-3-yl)oxy)-N-methylacetamide], the “Ymin (5 hr)” value is “+++ (30% ≤ Ymin < 50%)” and the DC50 was in the range of 10 to 100 nM.
The like results for `CNC(=O)COc1cc2cc(Nc3nc(N4CCN(CC5CCN(c6ccc7c(C8CCC(=O)NC8=O)nn(C)c7c6)CC5)[C@H](CO)C4)ncc3Cl)cnc2n(C(C)C)c1=O` (stereo partly drawn) [Compound 153b, 2-((6-((5-chloro-2-((3S)-4-((1-(3-(2,6-dioxopiperidin-3-yl)-1-methyl-1H-indazol-6-yl)piperidin-4-yl)methyl)-3-(hydroxymethyl)piperazin-1-yl)pyrimidin-4-yl)amino)-1-isopropyl-2-oxo-1,2-dihydro-1,8-naphthyridin-3-yl)oxy)-N-methylacetamide] were, in that order, “+++ (30% ≤ Ymin < 50%)” and less than 10 nM.
In the same order, the values of `CNC(=O)COc1cc2cc(Nc3nc(N4C[C@@H]5[C@@H](CN6CCN(c7cccc8c(C9CCC(=O)NC9=O)nn(C)c78)CC6)[C@@H]5C4)ncc3Cl)cnc2n(C)c1=O` (stereo partly drawn) [Compound 136a, 2-((6-((5-chloro-2-((1R,5S,6s)-6-((4-(3-(2,6-dioxopiperidin-3-yl)-1-methyl-1H-indazol-7-yl)piperazin-1-yl)methyl)-3-azabicyclo[3.1.0]hexan-3-yl)pyrimidin-4-yl)amino)-1-methyl-2-oxo-1,2-dihydro-1,8-naphthyridin-3-yl)oxy)-N-methylacetamide] are “++++ (Ymin < 30%)” and less than 10 nM.
The like results for `CCn1c(=O)c(OCC(=O)NC)cc2cc(Nc3nc(N4CCN(CC5CCN(c6cccc7c(C8CCC(=O)NC8=O)nn(C)c67)CC5)CC4)ncc3Cl)cnc21` (centres unmarked) [Compound 145, 2-((6-((5-chloro-2-(4-((1-(3-(2,6-dioxopiperidin-3-yl)-1-methyl-1H-indazol-7-yl)piperidin-4-yl)methyl)piperazin-1-yl)pyrimidin-4-yl)amino)-1-ethyl-2-oxo-1,2-dihydro-1,8-naphthyridin-3-yl)oxy)-N-methylacetamide] were, in that order, “++++ (Ymin < 30%)” and less than 10 nM.
As to `CNC(=O)COc1cc2cc(Nc3nc(N4CCN([C@@H](C)C5CCN(c6cccc7c(C8CCC(=O)NC8=O)nn(C)c67)CC5)CC4)ncc3Cl)cnc2n(C(C)C)c1=O` (single isomer, unassigned) [Compound 195a], the “Ymin (5 hr)” value was “++++ (Ymin < 30%)” and the DC50 lay within 10 to 100 nM.
On to `CNC(=O)COc1cc2cc(Nc3nc(N4CCN(CC5CCN(c6ccc7c(C8CCC(=O)NC8=O)nn(C)c7c6)CC5)C[C@H]4CO)ncc3Cl)cnc2n(C(C)C)c1=O` (stereo partly drawn) [Compound 151b, 2-((6-((5-chloro-2-((2S)-4-((1-(3-(2,6-dioxopiperidin-3-yl)-1-methyl-1H-indazol-6-yl)piperidin-4-yl)methyl)-2-(hydroxymethyl)piperazin-1-yl)pyrimidin-4-yl)amino)-1-isopropyl-2-oxo-1,2-dihydro-1,8-naphthyridin-3-yl)oxy)-N-methylacetamide], for which the “Ymin (5 hr)” value is “++ (50% ≤ Ymin < 70%)” and the DC50 was less than 10 nM.
In the same order, the values of `CNC(=O)COc1cc2cc(Nc3nc(N4CCC([C@@H](C)N5CCN(c6cccc7c(C8CCC(=O)NC8=O)nn(C)c67)CC5)CC4)ncc3Cl)cnc2n(C(C)C)c1=O` (single isomer, unassigned) [Compound 193a] are “+++ (30% ≤ Ymin < 50%)” and 10 to 100 nM.
Consider `CNC(=O)COc1cc2cc(Nc3nc(N4CCN(c5ccc6c(C7CCC(=O)NC7=O)nn(C)c6c5)CC4)ncc3Cl)cnc2n(C(C)C)c1=O` (centres unmarked) [Compound 165, 2-[[6-[[5-chloro-2-[4-[3-(2,6-dioxo-3-piperidyl)-1-methyl-indazol-6-yl]piperazin-1-yl]pyrimidin-4-yl]amino]-1-isopropyl-2-oxo-1,8-naphthyridin-3-yl]oxy]-N-methyl-acetamide], for which the “Ymin (5 hr)” value is recorded as “++ (50% ≤ Ymin < 70%)” and the DC50 was less than 10 nM.
The like results for `CNC(=O)COc1cc2cc(Nc3nc(N4CC5(CC[C@@H](Nc6ccc7c(C8CCC(=O)NC8=O)nn(C)c7c6)[C@@H](C)C5)C4)ncc3Cl)cnc2n(C)c1=O` (single isomer, unassigned) [Compound 156c] were, in that order, “++++ (Ymin < 30%)” and less than 10 nM.
In the same order, the values of `CNC(=O)COc1cc2cc(Nc3nc(N4CCN(CC5CCN(c6cccc7c(C8CCC(=O)NC8=O)nn(C)c67)CC5)[C@@H](C)C4)ncc3Cl)cnc2n(C(C)C)c1=O` (stereo partly drawn) [Compound 105a, 2-((6-((5-chloro-2-((3S)-4-((1-(3-(2,6-dioxopiperidin-3-yl)-1-methyl-1H-indazol-7-yl)piperidin-4-yl)methyl)-3-methylpiperazin-1-yl)pyrimidin-4-yl)amino)-1-isopropyl-2-oxo-1,2-dihydro-1,8-naphthyridin-3-yl)oxy)-N-methylacetamide] are “++++ (Ymin < 30%)” and 10 to 100 nM.
In the same order, the values of `CNC(=O)COc1cc2cc(Nc3cc(N4CCC(CN5CCN(c6cccc7c(C8CCC(=O)NC8=O)nn(C)c67)[C@H](C)C5)CC4)ncc3Cl)cnc2n(C(C)C)c1=O` (stereo partly drawn) [Compound 217a, 2-[[6-[[5-chloro-2-[4-[[(3R)-4-[3-(2,6-dioxo-3-piperidyl)-1-methyl-indazol-7-yl]-3-methyl-piperazin-1-yl]methyl]-1-piperidyl]-4-pyridyl]amino]-1-isopropyl-2-oxo-1,8-naphthyridin-3-yl]oxy]-N-methyl-acetamide] are “++++ (Ymin < 30%)” and 10 to 100 nM.
Take `CNC(=O)COc1cc2cc(Nc3nc(N4CC5(CC[C@H](Nc6ccc7c(C8CCC(=O)NC8=O)nn(C)c7c6)[C@H](C)C5)C4)ncc3Cl)cnc2n(C(C)C)c1=O` (relative stereo) [Compound 180b, rel-2-((6-((5-chloro-2-((6R,7S)-7-((3-(2,6-dioxopiperidin-3-yl)-1-methyl-1H-indazol-6-yl)amino)-6-methyl-2-azaspiro[3.5]nonan-2-yl)pyrimidin-4-yl)amino)-1-isopropyl-2-oxo-1,2-dihydro-1,8-naphthyridin-3-yl)oxy)-N-methylacetamide]: the “Ymin (5 hr)” value is recorded as “+++ (30% ≤ Ymin < 50%)” and the DC50 was less than 10 nM.
In the same order, the values of `CNC(=O)COc1cc2cc(Nc3nc(N4CCN(C(=O)N5CCN(c6ccc7c(C8CCC(=O)NC8=O)nn(C)c7c6)CC5)CC4)ncc3Cl)cnc2n(C(C)C)c1=O` (centres unmarked) [Compound 219, 2-[[6-[[5-chloro-2-[4-[4-[3-(2,6-dioxo-3-piperidyl)-1-methyl-indazol-6-yl]piperazine-1-carbonyl]piperazin-1-yl]pyrimidin-4-yl]amino]-1-isopropyl-2-oxo-1,8-naphthyridin-3-yl]oxy]-N-methyl-acetamide] are “+++ (30% ≤ Ymin < 50%)” and less than 10 nM.
Consider `CNC(=O)COc1cc2cc(Nc3nc(N4CCC(CN5CCN(c6ccc7c(C8CCC(=O)NC8=O)nn(C)c7c6)C[C@@H]5C)CC4)ncc3Cl)cnc2n(C(C)C)c1=O` (stereo partly drawn) [Compound 215b, 2-((6-((5-chloro-2-(4-(((2S)-4-(3-(2,6-dioxopiperidin-3-yl)-1-methyl-1H-indazol-6-yl)-2-methylpiperazin-1-yl)methyl)piperidin-1-yl)pyrimidin-4-yl)amino)-1-isopropyl-2-oxo-1,2-dihydro-1,8-naphthyridin-3-yl)oxy)-N-methylacetamide], for which the “Ymin (5 hr)” value is given as “+++ (30% ≤ Ymin < 50%)” and the DC50 was in the range of 10 to 100 nM.
In the same order, the values of `CNC(=O)COc1cc2cc(Nc3nc(N4CC[C@@H](CN5CCN(c6ccc7c(C8CCC(=O)NC8=O)nn(C)c7c6)CC5)[C@H](C)C4)ncc3Cl)cnc2n(C(C)C)c1=O` (stereo partly drawn) [Compound 176d, 2-[[6-[[5-chloro-2-[(3S,4R)-4-[[4-[3-(2,6-dioxo-3-piperidyl)-1-methyl-indazol-6-yl]piperazin-1-yl]methyl]-3-methyl-1-piperidyl]pyrimidin-4-yl]amino]-1-isopropyl-2-oxo-1,8-naphthyridin-3-yl]oxy]-N-methyl-acetamide] are “+++ (30% ≤ Ymin < 50%)” and less than 10 nM.
In the case of `CNC(=O)COc1cc2cc(Nc3nc(N4C[C@@H]5C[C@H]4CN5CC4CCN(c5cccc6c(C7CCC(=O)NC7=O)nn(C)c56)CC4)ncc3Cl)cnc2n(C(C)C)c1=O` (stereo partly drawn) [Compound 174b, 2-[[6-[[5-chloro-2-[(1S,4S)-5-[[1-[3-(2,6-dioxo-3-piperidyl)-1-methyl-indazol-7-yl]-4-piperidyl]methyl]-2,5-diazabicyclo[2.2.1]heptan-2-yl]pyrimidin-4-yl]amino]-1-isopropyl-2-oxo-1,8-naphthyridin-3-yl]oxy]-N-methyl-acetamide], the “Ymin (5 hr)” value is “+++ (30% ≤ Ymin < 50%)” and the DC50 lay within 10 to 100 nM.
